Here are results for eight molecules from ChEMBL document CHEMBL1201862, “PubChem BioAssay data set” (2004).

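These data come from cells grown in 96-well plates and exposed to compound for 48 hours at five concentrations. Here, GI50 denotes the concentration required for 50% inhibition of growth.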 The source made the active and inactive calls. Cut-off read from the data, not from the text of the source: active = GI50 up to about 1.1 µM and inactive = higher. Residues, ends and D or L forms follow the SMILES beside them. *: point of attachment. Pentanoyl = CCCCC(=O)*; Boc = CC(C)(C)OC(=O)*

Test systems include PC-3; OVCAR-4; HL-60; 786-0; MDA-N; Hs-578T; TK-10; MOLT-4; KM12; HCT-116; SF-268; SR; SK-OV-3; SK-MEL-2; COLO 205; IGROV-1; OVCAR-8; A549; UO-31; RXF 393.
Holding throughout (assay): growth of human tumour cells (NCI), 48 h

Take `O=[N+]([O-])c1ccc2c3ccccc3[s+]([O-])c2c1` (configuration not stated): the GI50 with PC-3 was > 100 µM (inactive); with OVCAR-4, > 100 µM (inactive); with HL-60, 88.5 µM (inactive); in the test with 786-0 it was > 100 µM (inactive); in the test with MDA-N, > 100 µM (inactive); with Hs-578T, > 100 µM (inactive). In addition, the GI50 in the test on TK-10, in the test on MOLT-4, in the test on KM12, in the test on HCT-116, with SF-268 and in the test on SR was > 100 µM (inactive) each time. The GI50 in the test on SK-OV-3 is > 100 µM (inactive); in the test on SK-MEL-2, > 100 µM (inactive); in the test on COLO 205, 63.7 µM (inactive); with IGROV-1, > 100 µM (inactive); with OVCAR-8, > 100 µM (inactive); in the test on A549 it was > 100 µM (inactive).

For `N#Cc1cc(-c2nc3c(F)cccc3s2)ccc1N`, the GI50 in the test on PC-3 is > 100 µM (inactive); in the test with OVCAR-4, > 100 µM (inactive); in the test with HL-60, > 100 µM (inactive); in the test with 786-0, > 100 µM (inactive); in the test on MDA-N, 47.8 µM (inactive); in the test with Hs-578T it was > 100 µM (inactive). In addition, the GI50 was 4.26 µM (inactive) in the test on TK-10; > 100 µM (inactive) in the test on UO-31; > 100 µM (inactive) in the test on RXF 393; > 100 µM (inactive) in the test with MOLT-4; 65.3 µM (inactive) in the test on KM12; > 100 µM (inactive) in the test on HCT-116. In addition, the GI50 in the test with SF-268 was > 100 µM (inactive); in the test on SK-OV-3, > 100 µM (inactive); in the test with COLO 205, 71.4 µM (inactive); in the test with IGROV-1, 6.1 µM (inactive); in the test on OVCAR-8, > 100 µM (inactive); in the test with A549 it was > 100 µM (inactive).

Consider `Nc1ccc(Oc2ccc(C34CC5CC(C3)CC(c3ccc(Oc6ccc(N)cc6C(F)(F)F)cc3)(C5)C4)cc2)c(C(F)(F)F)c1`, for which the GI50 with PC-3 was 14.8 µM (inactive); in the test on OVCAR-4, 36.6 µM (inactive); with HL-60 it was 24.2 µM (inactive); in the test with 786-0 it was 31.6 µM (inactive); in the test on MDA-N, 36.6 µM (inactive); in the test on Hs-578T, 17.1 µM (inactive). For the same molecule, the GI50 with TK-10 was 16.1 µM (inactive); with UO-31 it was 39.1 µM (inactive); in the test with RXF 393, 11.1 µM (inactive); in the test with MOLT-4 it was 35.7 µM (inactive); with KM12, 21 µM (inactive); in the test on HCT-116, 24.9 µM (inactive). Besides, the GI50 with SF-268 was 17.4 µM (inactive); in the test on SK-OV-3, 15.6 µM (inactive); in the test with SK-MEL-2 it was 14.1 µM (inactive); in the test on COLO 205, 19.1 µM (inactive); with IGROV-1, 19.5 µM (inactive); with OVCAR-8 it was 16 µM (inactive). In the test with A549, the GI50 was 19.1 µM (inactive).

In the case of `Oc1ccc(Cl)cc1CN1CCN(Cc2cc(Cl)ccc2O)C1`, the GI50 with PC-3 is 0.206 µM (active); in the test on OVCAR-4 it was 1.3 µM (inactive); with HL-60, 2.02 µM (inactive); in the test with 786-0, 0.203 µM (active); in the test on MDA-N it was 1.79 µM (inactive); in the test on Hs-578T it was 3.82 µM (inactive). Further, the GI50 in the test on TK-10 was 1.55 µM (inactive); in the test with UO-31, 0.536 µM (active); with RXF 393, 0.895 µM (active); in the test on MOLT-4, 0.174 µM (active); in the test with KM12, 1.08 µM (active); with HCT-116 it was 0.234 µM (active). Moreover, the GI50 in the test with SF-268 was 1.09 µM (active); in the test with SK-OV-3, 2.3 µM (inactive); with SK-MEL-2, 1.73 µM (inactive); in the test with COLO 205 it was 1.45 µM (inactive); with IGROV-1, 1.89 µM (inactive); in the test on OVCAR-8, 0.525 µM (active). The GI50 in the test with A549 is 1.75 µM (inactive).

On to `NC(CCC(=O)O)C(=O)N1CCN(c2nc(N3CCCC3)c3nc(Cl)c(NCc4ccccc4)nc3n2)CC1` (configuration not stated), for which the GI50 with PC-3 is 13.3 µM (inactive); in the test with OVCAR-4 it was 10.5 µM (inactive); in the test with HL-60, 7.13 µM (inactive); in the test with 786-0 it was 12.1 µM (inactive); in the test on MDA-N, 10.1 µM (inactive); with Hs-578T it was 20 µM (inactive). Besides, the GI50 in the test with TK-10 is 17.1 µM (inactive); in the test on UO-31, 9.29 µM (inactive); with MOLT-4, 7.53 µM (inactive); with KM12, 16.1 µM (inactive); in the test with HCT-116, 13.9 µM (inactive); in the test on SF-268 it was 13.1 µM (inactive). For the same molecule, the GI50 in the test on SR is 3.68 µM (inactive); in the test with SK-OV-3 it was 18 µM (inactive); with SK-MEL-2, 15.6 µM (inactive); in the test on COLO 205 it was 10.7 µM (inactive); in the test on IGROV-1 it was 21.2 µM (inactive); with OVCAR-8, 15.6 µM (inactive). Besides, in the test with A549, the GI50 is 12.5 µM (inactive).

Consider `[N-]=[N+]=C1CNC(=O)NC1=O`, for which the GI50 in the test on PC-3 was > 100 µM (inactive); with OVCAR-4, > 100 µM (inactive); with HL-60 it was 34 µM (inactive); with 786-0, 60.4 µM (inactive); with MDA-N, > 100 µM (inactive); in the test with Hs-578T, > 100 µM (inactive). The GI50 was > 100 µM (inactive) in the test with TK-10; > 100 µM (inactive) in the test with UO-31; > 100 µM (inactive) in the test on RXF 393; 42.5 µM (inactive) with MOLT-4; > 100 µM (inactive) with KM12; > 100 µM (inactive) in the test on HCT-116. The GI50 in the test with SF-268, in the test on SK-OV-3, in the test on SK-MEL-2, in the test on COLO 205, in the test on IGROV-1 and in the test with OVCAR-8 was > 100 µM (inactive) in each case. The GI50 in the test on A549 was > 100 µM (inactive).

Regarding `ClC(Cl)(Cl)C1CCOC1n1nnc2ccccc21` (configuration not stated), the GI50 with PC-3 was > 100 µM (inactive); in the test on HL-60, 11.9 µM (inactive); in the test with 786-0 it was > 100 µM (inactive); in the test on MDA-N, > 100 µM (inactive); in the test with Hs-578T, 89.7 µM (inactive); in the test with TK-10, > 100 µM (inactive). The GI50 in the test on RXF 393 is > 100 µM (inactive); in the test with MOLT-4, 21.9 µM (inactive); in the test on HCT-116, 92.9 µM (inactive); in the test with SF-268, > 100 µM (inactive); with SK-OV-3, > 100 µM (inactive); in the test on SK-MEL-2, > 100 µM (inactive). Further, the GI50 in the test with COLO 205 is > 100 µM (inactive); in the test on IGROV-1, > 100 µM (inactive); in the test with OVCAR-8, > 100 µM (inactive); with A549 it was 63 µM (inactive).

In the case of `CCCCC(=O)Oc1ccc(CC(NC(=O)OC(C)(C)C)C(=O)NC(C)C(=O)NC(Cc2ccccc2)C(=O)NCC(N)=O)cc1` (configuration not stated) (Boc-Y(Pentanoyl)AFG-NH2; configuration not given here), the GI50 with PC-3 was 43.9 µM (inactive); with OVCAR-4, 74.1 µM (inactive); in the test on HL-60, 26.4 µM (inactive); in the test with 786-0, 43.6 µM (inactive); with MDA-N it was 25.9 µM (inactive); in the test with Hs-578T it was 34.6 µM (inactive). Also, the GI50 is > 100 µM (inactive) in the test on TK-10; > 100 µM (inactive) in the test with UO-31; 44.5 µM (inactive) in the test with RXF 393; 24.3 µM (inactive) in the test on MOLT-4; 23.7 µM (inactive) in the test on KM12; 21.4 µM (inactive) with HCT-116. Moreover, the GI50 with SF-268 was 31.6 µM (inactive); in the test on SK-OV-3 it was 32.6 µM (inactive); with SK-MEL-2 it was 20.7 µM (inactive); in the test with COLO 205 it was 19.6 µM (inactive); in the test on IGROV-1, 19.7 µM (inactive); in the test on OVCAR-8 it was 16.8 µM (inactive). Further, the GI50 in the test on A549 is > 100 µM (inactive).
